Experimental data published in patent US10485861B2 (priority 2013, dated 2019).

Tested on: Chlamydia trachomatis
Type: in vivo, mice
Conditions: subcutaneous immunization with UV-inactivated Chlamydia, alone or co-administered with the named adjuvant

CC(C)Cn1cnc2c(N)nc3ccccc3c21 [IMQ, imiquimod]
Protection against genital Chlamydia challenge (Chlamydia load): did not provide protection or tolerance
